# Experiments:
# [1] = reported pI; cited from earlier work
# [2] = biological target: T1, horse serum cholinesterase (Equus caballus, UniProt P81908); assay: Inhibition of horse (serum) cholinesterase, Ki by the method of Dixon; format: biochemical
# T1 construct: purchased Sigma Chemicals Co; host or cells: horse serum
# Source text: E. coli beta-galactosidase, chromatographically purified, was obtained from Worthington Biochemicals. P-aminophenyl-beta-D-thiogalactopyranoside (APGP) was purchased from Calbiochem. O-nitrophenyl-beta-D-galactopyranoside (ONPG), bovine trypsin (twice recrystallized), DL-benzoylarginine-p-nitroanilide (DL-BAPNA), p-aminobenzamidine (PAB), cholinesterase (affinity purified from horse serum), procainamide, dithiobisnitrobenzoate, and butyrylthiocholine were obtained from Sigma Chemicals Co. Tresyl chloride (2,2,2-trifluoroethanesulfonyl chloride) was obtained from Fluka and ethyl-(dimethyl-aminopropyl)carbodiimide (EDC) from Aldrich. The surfactant Sandopan JA36 was obtained from Sandoz Chemicals and the surfactant octaethylene glycol n-hexadecyl ether (C16 E8) was obtained from Nikkol Chemicals Co. (Japan). The structures of these surfactants is as shown below: [drawing 1]
# The molar extinction coefficient of C16 E8 -pyridinium at 259 nm is […] (by dry weight). The product final yield is 71.9%.
# [3] = Stability of trypsin solution at 4 degrees Celsius (BAPNA activity assay); format: physicochemical; settings: 2.9 mg/ml in Buffer A, over three days
# Procedure: This example was conducted in accordance with Example 18 above. The activity of trypsin solutions were determined by a method similar to that described by Erlanger et al., Arch. Biochem. Biophys. 95, 271 (1961), using BAPNA as substrate. An aliquot (0.5 milliliter) of the trypsin solution to be assayed was diluted in 1.5 milliliters of 0.05 M Tris-HCl buffer, pH 8.15, containing 0.02 M CaCl2 in a 3.5 milliliter disposable polystyrene cuvette. A 100 microliter aliquot of a 10^-2 M solution of BAPNA in dimethylsulfoxide was then added to this solution. The rate of change in absorbance at 388 nm at 25 degrees Celsius was then measured in a Schimadzu UV 160 spectrophotometer. One unit of activity was defined as the amount of enzyme causing an absorbance change of 0.1 per minute under these conditions.
# A solution of trypsin (2.9 milligrams of protein per milliliter) was prepared in Buffer A and several activity assays were made over the course of three days to determine its stability at 4 degrees Celsius. […] In this case the eluted peaks were collected and assayed for enzymatic activity.
# T1 sequence (P81908 whole entry): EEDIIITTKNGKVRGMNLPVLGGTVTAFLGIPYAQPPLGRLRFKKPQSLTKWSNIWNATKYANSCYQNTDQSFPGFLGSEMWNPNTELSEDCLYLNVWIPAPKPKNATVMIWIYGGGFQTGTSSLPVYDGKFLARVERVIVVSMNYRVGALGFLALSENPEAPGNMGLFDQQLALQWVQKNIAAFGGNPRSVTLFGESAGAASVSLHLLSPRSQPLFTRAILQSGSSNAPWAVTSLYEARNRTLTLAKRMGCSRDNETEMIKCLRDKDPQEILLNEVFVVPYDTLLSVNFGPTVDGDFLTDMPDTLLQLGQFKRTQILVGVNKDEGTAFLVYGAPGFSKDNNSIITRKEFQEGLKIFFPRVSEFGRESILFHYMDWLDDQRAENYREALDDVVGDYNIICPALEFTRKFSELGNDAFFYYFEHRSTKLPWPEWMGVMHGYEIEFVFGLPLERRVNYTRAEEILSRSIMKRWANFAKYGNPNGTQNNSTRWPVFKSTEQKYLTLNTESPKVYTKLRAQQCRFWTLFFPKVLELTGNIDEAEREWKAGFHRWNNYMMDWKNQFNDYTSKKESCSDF
molecule,measurement,setting,value
"Lysozyme: test protein, isoelectric point (pI) of 11.0",isoelectric point (pI),[1],11.0
"CCCCCCCCCCCCCCCCOCCOCCOCCOCCOCCOCCOCCOCCO [Unmodified surfactant, octaethylene glycol n-hexadecyl ether, reference compound]",effect on the activity of horse cholinesterase,[2]; even at concentrations as high as 10^-3 M,does not have any effect
"CCCCCCCCCCCCCCCCOCCOCCOCCOCCOCCOCCOCCOCC[n+]1ccccc1 [C16 E8 -pyridinium, N-(n-hexadecyloctaethoxy)pyridinium]",Ki,"[2]; horse serum cholinesterase, method of Dixon, read-out: Ki toward horse serum cholinesterase",514 nM
same,inhibition of the enzymatic activity of horse cholinesterase,"[2]; surface active HPLC peak, retention time 127.5 minutes",significantly inhibits
"trypsin: bovine trypsin (twice recrystallized) (protein, UniProt P00760 24-246, looked up) Serine protease 1: IVGGYTCGANTVPYQVSLNSGYHFCGGSLINSQWVVSAAHCYKSGIQVRLGEDNINVVEGNEQFISASKSIVHPSYNSNTLNNDIMLIKLKSAASLNSRVASISLPTSCASAGTQCLISGWGNTKSSGTSYPDVLKCLKAPILSDSSCKSAYPGQITSNMFCAGYLEGGKDSCQGDSGGPVVCSGKLQGIVSWGSGCAQKNKPGVYTKVCNYVSWIKQTIASN",loss in tryptic activity (stability of solution),[3],No significant loss in tryptic activity was observed

# From patent publication US5045190A, “Chromatography apparatus” (priority 1990, dated 1991)
